In publication PMC11483813, “Bombesin-Targeted Delivery of β-Carboline-Based Ir(III) and Ru(II) Photosensitizers for a Selective Photodynamic Therapy of Prostate Cancer” (Inorganic Chemistry, 2024):
Where “and” joins values, the source holds several entries; their conditions need not be identical. Equal entries are not always repeated. Where two headings read alike, the source gives them in different places. Residues, ends and D or L forms follow the SMILES beside them. *: point of attachment. X1 = Cn1c2ccccc2c2ccnc(-c3ccc(/C=C/C(=O)*)cn3)c21

Key:
Assay type in all cases: cell-based, human
A549 lung cancer cells = conditions: for PI (IC50,dark/IC50,light) A549: blue light 460 nm
Protocol: (§1) The effect of Ir-H, Ir-Me, Ru-H, and Ru-Me on cell viability was evaluated in the A549 lung cancer and PC-3 prostate cancer cell lines by MTT assays. PC-3 cells were specifically chosen due to their high expression levels of GRPR on their surface, allowing for further evaluation of the activity of the BN3-derived metallopeptides Ir-BN and Ru-BN.[38],[51] In contrast, A549 cells express low levels of GRPR.[52] MRC-5 fibroblasts were used as a nonmalignant cell model.[53]Table 3 reports the half maximal inhibitory concentration (IC50) values obtained after treating the cells either under dark conditions or upon exposure to blue light at a dose of 24.1 J cm^–2. The photocytotoxicity index (PI), defined as the IC50,dark/IC50,light, is provided for each compound.
(§2) Stock solutions of the complexes and metallopeptides were initially prepared at a concentration of 5 mM in DMSO and then diluted in sterile distilled water to achieve a final concentration of 1 mM, with a resulting DMSO concentration of 20% v/v. Cells were seeded into 96-well plates at a density of 2500 cells/well for A549, 3500 cells/well for PC-3, and 5500 cells/well for MRC-5. Following 24 h of incubation for attachment, cells were treated in triplicate with freshly prepared working solutions of the compounds in the culture medium at concentrations ranging from 0.001 to 100 μM. The maximum DMSO concentration in the working solutions was 2% (v/v). The working concentrations for each compound were adjusted based on their cytotoxicity. Following a 4 h incubation period to allow internalization of the compounds into the cells, the plates were kept in dark conditions or exposed to blue (460 nm) or red (655 nm) light for 1 h using an LED system (LuxLight), providing a total dose of 24.1 J cm^–2. All plates were incubated in the dark for an additional 43 h. Cells were then washed with phosphate-buffered saline (PBS), and 100 μL of fresh culture medium containing 10% of 3-[4,5-dimethylthiazol-2-yl]-2,5 diphenyl tetrazolium bromide (MTT) solution (0.5 mg/mL) (Sigma- Aldrich) was added to each well. After a 2 h incubation period, the formazan crystals were dissolved in DMSO, and the absorbance was measured at 570 nm using a Multiscan Plate Reader (Synergy 4, Biotek, Winooski, USA). The concentration causing a 50% reduction in cell viability (IC50) was determined for each compound with the Gen5 software (BioTek). At least three independent experiments were conducted for each compound.

[1] = system: PC-3 prostate cancer cells; conditions: for PI (IC50,dark/IC50,light) PC-3: blue light 460 nm
Protocol: as §1, §2

MRC-5 fibroblasts = conditions: for PI (IC50,dark/IC50,light) MRC-5: blue light 460 nm
Protocol: as §1, §2

PC-3 cells = experiment: Cellular internalization by ICP-MS; conditions: 5 μM, 4 h
Protocol: Figure 10 Cellular internalization. PC-3 cells were incubated for 4 h with the indicated compounds at 5 μM, and the Ir (A) or Ru (B) content per 1 × 10^6 cells was quantified by ICP-MS. Bars represent the mean value of three replicates ± SD. * p < 0.05; *** p < 0.001 versus Ir-H or Ru-H.
The intracellular accumulation of the PSs is a crucial requirement to achieve a photocytotoxic effect. This is because the ROS generated by the PSs have a very limited radius of action and only operate in the cellular compartment or organelle in which they are generated.[57] […] This further emphasizes the importance of cellular uptake for their cytotoxic activity. Additionally, when using tumor-targeting ligands, such as BN3, the intracellular uptake of the metallopeptides depends on the level of expression of the target receptor on the cell surface and the internalization mechanism, which may differ from that of the free complex. Therefore, the internalization of complexes Ir-H, Ir-Me, Ru-H, and Ru-Me and of metallopeptides Ir-BN and Ru-BN in PC-3 cells was determined by quantifying the intracellular metal content by inductively coupled plasma mass spectrometry (ICP-MS) (Figure 10). After 4 h treatment with the compounds at 5 μM, the amount of Ir in cells exposed to Ir-H was 3.1 ± 0.7 ng per million cells, whereas in the case of its conjugated form Ir-BN, it increased 5.7-fold to 17.9 ± 5.6 ng per million cells. […]
PC-3 cells were seeded in 6-well plates at a density of 2 million cells/well. […] The number of cells in each sample was determined using a Novocyte flow cytometer (Agilent Technologies). The samples were centrifuged to obtain the cell pellet, and the complex content was subsequently assessed using inductively coupled plasma mass spectrometry (ICP-MS). […] The Ir or Ru content was analyzed in Agilent 7500c ICP-MS located at the Technical Research Services of the University of Girona. […] The isotopes detected were ^193Ir, ^101Ru, and ^103Rh, respectively. […] Three independent samples were analyzed for each complex.

[2] = A549, 4 h incubation, blue light 1 h (460 nm, 24.1 J cm^–2), MTT after 48 h, read-out: IC50 A549 Light
[3] = A549, 4 h incubation, kept in the dark 1 h, MTT after 48 h, read-out: IC50 A549 Dark
[4] = PC-3, 4 h incubation, blue light 1 h (460 nm, 24.1 J cm^–2), MTT after 48 h, read-out: IC50 PC-3 Light
[5] = PC-3, 4 h incubation, kept in the dark 1 h, MTT after 48 h, read-out: IC50 PC-3 Dark
[6] = MRC-5, 4 h incubation, blue light 1 h (460 nm, 24.1 J cm^–2), MTT after 48 h, read-out: IC50 MRC-5 Light
[7] = MRC-5, 4 h incubation, kept in the dark 1 h, MTT after 48 h, read-out: IC50 MRC-5 Dark

Question: How did the IC50 (A549 lung cancer cells; 4 h) turn out when `CC(C)C[C@H](NC(=O)[C@H](CC(C)C)NC(=O)[C@H](Cc1c[nH]cn1)NC(=O)CNC(=O)[C@@H](NC(=O)[C@H](C)NC(=O)[C@H](Cc1c[nH]c2ccccc12)NC(=O)[C@H](CCC(N)=O)NC(=O)[C@H](CC(N)=O)NC(=O)CNC(=O)[C@H](CC(C)C)NC(=O)[C@H](CCCNC(=N)N)NC(=O)[C@H](CCC(N)=O)NC(=O)/C=C/c1ccc(-c2nccc3c4ccccc4n(C)c23)nc1)C(C)C)C(N)=O` [Ir-BN] (X1-QRLGNQWAVGHLL-NH2) was run?
Answer: The IC50 was 12.6 ± 1.3 µM.

Question: What about the “PI (IC50,dark/IC50,light) A549” value (A549 lung cancer cells; A549) of the same molecule?
Answer: The value was 5.4.

Question: What about the IC50 ([1]; 4 h) of the same molecule?
Answer: The IC50 was 8.51 ± 0.8 µM.

Question: What about the “photoselectivity index (IC50,dark in nonmalignant cells/IC50,light in GRPR overexpressing cancer cells)” value ([1]; 24 h) of the same molecule?
Answer: Its value is 9.5.

Question: What about the “PI (IC50,dark/IC50,light) PC-3” value ([1]; PC-3) of the same molecule?
Answer: Its value is 4.1.

Question: And the “selectivity for PC-3 cells with respect to MRC-5 fibroblasts” value ([1]; after blue light)?
Answer: The value was 3.4 fold.

Question: What about the IC50 (MRC-5 fibroblasts; 4 h) of the same molecule?
Answer: Its IC50 is 28.7 ± 5.9 µM.

Question: What about the “IC50,light in MRC-5, fold higher than that of Ir-H” value (MRC-5 fibroblasts; MRC-5, blue light) of the same molecule?
Answer: The value was 4.4 fold.

Question: And the “PI (IC50,dark/IC50,light) MRC-5” value (MRC-5 fibroblasts; MRC-5)?
Answer: Its value is 2.8.

Question: And the “IC50,dark in MRC-5, fold higher than that of Ir-H” value (MRC-5 fibroblasts; MRC-5, dark)?
Answer: The value was 2.1 fold.

Question: Which results are given for `Cn1c2ccccc2c2ccnc(-c3ccc(/C=C/C(=O)O)cn3)c21.[Cl-].[Ir+3].[c-]1ccccc1-c1ccccn1.[c-]1ccccc1-c1ccccn1` [Ir-H]?
Answer: IC50 (A549 lung cancer cells; [2]): 3.32 ± 1.1 µM; IC50 (A549 lung cancer cells; [3]): 35 ± 5.4 µM; PI (IC50,dark/IC50,light) A549 (A549 lung cancer cells; A549): 10.5; IC50 [1, 4]: 9.23 ± 0.63 µM; IC50 [1, 5]: 32.2 ± 1.9 µM; PI (IC50,dark/IC50,light) PC-3 ([1]; PC-3): 3.49 and 3.5; IC50 (MRC-5 fibroblasts; [6]): 6.46 ± 0.801 µM; IC50 (MRC-5 fibroblasts; [7]): 39.1 ± 2.4 µM; PI (IC50,dark/IC50,light) MRC-5 (MRC-5 fibroblasts; MRC-5): 6.1; amount of Ir in cells (PC-3 cells): 3.1 ± 0.7 ng per million cells

Question: `COC(=O)/C=C/c1ccc(-c2nccc3c4ccccc4n(C)c23)nc1.[Cl-].[Ir+3].[c-]1ccccc1-c1ccccn1.[c-]1ccccc1-c1ccccn1` [Ir-Me] was tested. Which IC50 (A549 lung cancer cells; [2]) did it give?
Answer: Its IC50 is 0.0334 ± 0.0068 µM.

Question: And the IC50 (A549 lung cancer cells; [3])?
Answer: The IC50 was 0.471 ± 0.031 µM.

Question: What about the “PI (IC50,dark/IC50,light) A549” value (A549 lung cancer cells; A549) of the same molecule?
Answer: The value was 14.2.

Question: What about the IC50 [1, 4] of the same molecule?
Answer: The IC50 was 0.0723 ± 0.031 µM.

Question: What about the IC50 [1, 5] of the same molecule?
Answer: Its IC50 is 1.17 ± 0.29 µM.

Question: What about the “PI (IC50,dark/IC50,light) PC-3” value ([1]; PC-3) of the same molecule?
Answer: The value was 16.2.

Question: And the IC50 (MRC-5 fibroblasts; [6])?
Answer: Its IC50 is 0.0313 ± 0.019 µM.

Question: And the IC50 (MRC-5 fibroblasts; [7])?
Answer: Its IC50 is 1.12 ± 0.31 µM.

Question: What about the “PI (IC50,dark/IC50,light) MRC-5” value (MRC-5 fibroblasts; MRC-5) of the same molecule?
Answer: The value was 35.8.

Question: And the “amount of Ir in cells” value (PC-3 cells)?
Answer: Its value is 266.4 ± 13.9 ng per million cells.

Question: For `Cn1c2ccccc2c2ccnc(-c3ccc(/C=C/C(=O)O)cn3)c21.[Cl-].[Cl-].[Ru+2].c1ccc(-c2ccccn2)nc1.c1ccc(-c2ccccn2)nc1` [Ru-H], which IC50 (A549 lung cancer cells; [2]) is on record?
Answer: Its IC50 is 56.7 ± 1.6 µM.

Question: What about the IC50 (A549 lung cancer cells; [3]) of the same molecule?
Answer: Its IC50 is 67.8 ± 6.7 µM.

Question: And the “PI (IC50,dark/IC50,light) A549” value (A549 lung cancer cells; A549)?
Answer: The value was 1.2.

Question: What about the IC50 [1, 4] of the same molecule?
Answer: Its IC50 is 34.8 ± 4.3 µM.

Question: What about the IC50 [1, 5] of the same molecule?
Answer: Its IC50 is 70.4 ± 2.7 µM.

Question: And the “PI (IC50,dark/IC50,light) PC-3” value ([1]; PC-3)?
Answer: The value was 2.0.

Question: What about the “PI (IC50,dark/IC50,red light) PC-3” value ([1]; PC-3, red light 655 nm) of the same molecule?
Answer: Its value is 1.3.

Question: What about the IC50 ([1]; PC-3, red light 1 h (655 nm, 24.1 J cm^–2), MTT after 48 h, read-out: IC50,redlight PC-3) of the same molecule?
Answer: Its IC50 is 54.3 ± 4.7 µM.

Question: What about the IC50 (MRC-5 fibroblasts; [6]) of the same molecule?
Answer: The IC50 was 43.5 ± 4.5 µM.

Question: And the IC50 (MRC-5 fibroblasts; [7])?
Answer: Its IC50 is 53.9 ± 5.4 µM.

Question: And the “PI (IC50,dark/IC50,light) MRC-5” value (MRC-5 fibroblasts; MRC-5)?
Answer: Its value is 1.2.

Question: And the “PI (IC50,dark/IC50,red light) MRC-5” value (MRC-5 fibroblasts; MRC-5, red light 655 nm)?
Answer: Its value is 0.9.

Question: What about the IC50 (MRC-5 fibroblasts; MRC-5, red light 1 h (655 nm, 24.1 J cm^–2), MTT after 48 h, read-out: IC50,redlight MRC-5) of the same molecule?
Answer: The IC50 was 62.3 ± 7.1 µM.

Question: And the “intracellular Ru content” value (PC-3 cells)?
Answer: The value was 0.329 ng per million cells.
